pEC50, pIC50: −log10 of the molar value. The source made the active and inactive calls. No cut-off for these calls is given here.
Experiments:
[1] = molecular target: T1, Programmed cell death protein 1/Programmed cell death 1 ligand 1 (Homo sapiens) (UniProt Q15116+Q9NZQ7); test: Inhibition of GST-tagged PD-1 (unknown origin)/His-tagged PD-L1 (unknown origin) interaction at 10 nM by HTRF binding assay relative to control; type: protein-complex assay
[2] = molecular target: T1, Programmed cell death protein 1/Programmed cell death 1 ligand 1 (Homo sapiens); test: Inhibition of GST-tagged PD-1 (unknown origin)/His-tagged PD-L1 (unknown origin) interaction at 100 nM by HTRF binding assay relative to control; type: protein-complex assay
[3] = Half-life in Sprague-Dawley rat at 1 mg/kg, iv administered as single dose and measured after 48 hrs by HPLC-MS/MS analysis; type: ADME, organism-based; conditions: in vivo
[4] = Initial drug concentration in Sprague-Dawley rat at 1 mg/kg, iv administered as single dose and measured after 48 hrs by HPLC-MS/MS analysis; type: ADME, organism-based; conditions: in vivo
[5] = MRT (0 to infinity) in Sprague-Dawley rat at 1 mg/kg, iv administered as single dose and measured after 48 hrs by HPLC-MS/MS analysis; type: ADME, organism-based; conditions: in vivo
[6] = Tmax in Sprague-Dawley rat at 1 mg/kg, iv administered as single dose and measured after 48 hrs by HPLC-MS/MS analysis; type: ADME, organism-based; conditions: in vivo
[7] = MRT (0 to t) in Sprague-Dawley rat at 1 mg/kg, iv administered as single dose and measured after 48 hrs by HPLC-MS/MS analysis; type: ADME, organism-based; conditions: in vivo
[8] = AUC (0 to infinity) in Sprague-Dawley rat at 1 mg/kg, iv administered as single dose and measured after 48 hrs by HPLC-MS/MS analysis; type: ADME, organism-based; set-up: dose 1 mg/kg, time 48 hrs, route iv; conditions: in vivo
[9] = molecular target: T2, Programmed cell death protein 1/Programmed cell death 1 ligand 1 (Homo sapiens, UniProt Q9NZQ7); test: Inhibition of interaction of PD-1 (unknown origin) expressed in Jurkat T cells carrying luciferase reporter under the control of NFAT promoter/PD-L1 (unknown origin) expressed in CHO cells co-expressing TCR ligand and T-cell surrogate pretreated with CHO cells for 0.5 hrs followed by Jurkat T cell addition and measured after 5 hrs by luminescence based analysis
[10] = Toxicity in allogenic BALB/c mouse implanted with mouse B16-F10 cells assessed as inflammatory cell infiltration in colon at 50 mg/kg, ip by H&E staining based analysis; type: organism-based; conditions: in vivo
[11] = AUC (0 to t) in Sprague-Dawley rat at 1 mg/kg, iv administered as single dose and measured after 48 hrs by HPLC-MS/MS analysis; type: ADME, organism-based; set-up: dose 1 mg/kg, time 48 hrs, route iv; conditions: in vivo
[12] = system: HepG2; test: Antitumor immunity activity against human HepG2 cells expressing human PD-L1 co-cultured with human Jurkat T cells expressing human PD-1 assessed as reduction in cell viability at 10 uM incubated for 48 hrs by CCK8 assay relative to control; type: functional
[13] = Clearance in Sprague-Dawley rat at 1 mg/kg, iv administered as single dose and measured after 48 hrs by HPLC-MS/MS analysis; type: ADME, organism-based; conditions: in vivo
[14] = Apparent volume of distribution in Sprague-Dawley rat at 1 mg/kg, iv administered as single dose and measured after 48 hrs by HPLC-MS/MS analysis; type: ADME, organism-based; conditions: in vivo, read-out: Vz
[15] = system: B16-F10; test: Antitumor immunity against mouse B16-F10 cells implanted in allogenic BALB/c mouse assessed as increase in CD3+ T cells at 50 mg/kg, ip by flow cytometric analysis (reference value: 2.51%); type: functional
[16] = system: B16-F10; test: Antitumor activity against mouse B16-F10 cells implanted in BALB/c mouse assessed as reduction in tumor growth inhibition at 50 mg/kg, ip administered once daily for 14 days relative to control; type: functional; conditions: B16-F10, 336 h, time 14 day, read-out: TGI
[17] = Toxicity in allogenic BALB/c mouse implanted with mouse B16-F10 cells assessed as severe crypt necrosis in colon at 50 mg/kg, ip by H&E staining based analysis; type: organism-based; conditions: in vivo
[18] = molecular target: T2, Programmed cell death protein 1/Programmed cell death 1 ligand 1; test: Inhibition of GST-tagged PD-1 (unknown origin)/His-tagged PD-L1 (unknown origin) interaction by HTRF binding assay relative to control; type: protein-complex assay
[19] = molecular target: Programmed cell death 1 ligand 1 (Homo sapiens, UniProt Q9NZQ7); test: Binding affinity to human PD-L1 at 20 uM by SPR analysis
[20] = molecular target: Programmed cell death 1 ligand 1 (Mus musculus) (UniProt Q9EP73); test: Binding affinity to mouse PD-L1 at 20 uM by SPR analysis
[21] = molecular target: T1, Programmed cell death protein 1/Programmed cell death 1 ligand 1 (Homo sapiens); test: Inhibition of GST-tagged PD-1 (unknown origin)/His-tagged PD-L1 (unknown origin) interaction at 10 uM by HTRF binding assay; type: protein-complex assay

T2 sequence (Q15116 whole entry): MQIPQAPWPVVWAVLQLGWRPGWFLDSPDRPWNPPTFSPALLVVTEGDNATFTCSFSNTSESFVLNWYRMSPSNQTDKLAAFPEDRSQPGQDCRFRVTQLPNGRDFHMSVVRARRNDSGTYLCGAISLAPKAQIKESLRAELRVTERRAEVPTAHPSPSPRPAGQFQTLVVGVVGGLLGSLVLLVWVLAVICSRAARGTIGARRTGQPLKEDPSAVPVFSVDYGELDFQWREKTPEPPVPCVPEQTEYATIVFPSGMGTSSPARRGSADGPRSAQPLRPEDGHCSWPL
T2 sequence (Q9NZQ7 whole entry): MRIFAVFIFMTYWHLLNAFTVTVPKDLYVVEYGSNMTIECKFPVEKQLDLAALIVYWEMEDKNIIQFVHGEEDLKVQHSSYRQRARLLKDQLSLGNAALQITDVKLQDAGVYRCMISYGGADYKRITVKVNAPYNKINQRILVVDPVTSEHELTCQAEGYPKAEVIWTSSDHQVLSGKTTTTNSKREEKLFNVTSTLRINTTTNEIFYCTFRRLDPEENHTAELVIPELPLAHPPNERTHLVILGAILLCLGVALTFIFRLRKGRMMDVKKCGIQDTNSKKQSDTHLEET
Chain of Programmed cell death 1 ligand 1 (Q9NZQ7 whole entry): as above
Chain of Programmed cell death 1 ligand 1 (Mus musculus) (Q9EP73 whole entry): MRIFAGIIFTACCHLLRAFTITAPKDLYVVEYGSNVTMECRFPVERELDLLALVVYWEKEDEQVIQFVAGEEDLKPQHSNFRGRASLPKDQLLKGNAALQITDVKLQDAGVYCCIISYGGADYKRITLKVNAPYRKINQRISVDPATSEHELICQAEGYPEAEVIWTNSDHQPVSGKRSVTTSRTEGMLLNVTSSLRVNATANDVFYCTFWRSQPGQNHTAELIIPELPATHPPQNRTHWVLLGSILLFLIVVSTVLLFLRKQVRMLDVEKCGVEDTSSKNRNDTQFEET

SMILES | inhibition [1] | inhibition [2] | other results
Cc1c(COc2cc(OCc3cccc(C#N)c3)c(CN3CCCCC3C(=O)N3CCC(NC(=O)CCCC[C@H]4SC[C@H]5NC(=O)N[C@H]54)CC3)cc2Cl)cccc1-c1ccc2c(c1)OCCO2 (stereo partly specified) | 13.4% | 90.6% | –
Cc1c(COc2cc(OCc3cccc(C#N)c3)c(CN3CCCCC3C(=O)NCCN)cc2Cl)cccc1-c1ccccc1 (stereo unspecified) | – | – | half-life [3]: 6.4 h; C0 at 48 h [4]: 2630 ng/mL; MRT inf [5]: 2.3 h; Tmax [6]: 4.98 min; MRT last at 48 h [7]: 1.8 h; AUC [8]: 1830 ng·h/mL; pEC50 [9]: 5.33; Activity [10]: Toxic; AUCt [11]: 1800 ng·h/mL; Activity [12]: 31%; clearance [13]: 8.33 mL/min/kg; Vd [14]: 5.3 L/kg; Activity [15]: 8.45%; inhibition in vivo at 50 mg/kg [16]: 44.3%; Activity [17]: Toxic
Cc1c(COc2cc(OCc3cccc(C#N)c3)c(CN3CCCCC3C(=O)NC3CCN(C(=O)CCCC[C@@H]4SC[C@@H]5NC(=O)N[C@@H]54)CC3)cc2Cl)cccc1-c1ccccc1 (stereo partly specified) | 29.1% | 99.2% | pIC50 [18]: 7.94
Cc1c(COc2cc(OCc3cccc(C#N)c3)c(CN3CCCCC3C(=O)NCCCNC(=O)CCCC[C@@H]3SC[C@@H]4NC(=O)N[C@@H]43)cc2Cl)cccc1-c1ccccc1 (stereo partly specified) | 85.2% | 104% | pIC50 [18]: 8.25
Cc1c(COc2cc(OCc3cccc(C#N)c3)c(CNC(C)(C)C(=O)N3CCC(NC(=O)CCCC[C@H]4SC[C@H]5NC(=O)N[C@H]54)CC3)cc2Cl)cccc1-c1ccc2c(c1)OCCO2 | -7.5% | 42.6% | –
Cc1c(COc2cc(OCc3cccc(C#N)c3)c(CN3CCCCC3C(=O)N3CCN(C(=O)CCCC[C@@H]4SC[C@@H]5NC(=O)N[C@@H]54)CC3)cc2Cl)cccc1-c1ccc2c(c1)OCCO2 (stereo partly specified) | 17.3% | 80.9% | –
Cc1c(COc2cc(OCc3cccc(C#N)c3)c(CNC(C)(C)C(=O)N3CCN(C(=O)CCCC[C@@H]4SC[C@@H]5NC(=O)N[C@@H]54)CC3)cc2Cl)cccc1-c1ccccc1 | 11.2% | 68.1% | –
Cc1c(COc2cc(OCc3cccc(C#N)c3)c(CNC(C)(C)C(=O)NC3CCN(C(=O)CCCC[C@H]4SC[C@H]5NC(=O)N[C@H]54)CC3)cc2Cl)cccc1-c1ccccc1 | 5.9% | 74.6% | –
Cc1c(COc2cc(OCc3cccc(C#N)c3)c(CN3CCCCC3C(=O)N(C)CCNC(=O)CCCC[C@@H]3SC[C@@H]4NC(=O)N[C@@H]43)cc2Cl)cccc1-c1ccccc1 (stereo partly specified) | 34.9% | 104% | pIC50 [18]: 7.97
Cc1c(COc2cc(OCc3cccc(C#N)c3)c(CN3CCCCC3C(=O)N3CCN(C(=O)CCCC[C@@H]4SC[C@@H]5NC(=O)N[C@@H]54)CC3)cc2Cl)cccc1-c1ccccc1 (stereo partly specified) | 93.1% | 102% | pIC50 [18]: 8.47
Cc1c(COc2cc(OCc3cccc(C#N)c3)c(CNC(C)(C)C(=O)NCCCNC(=O)CCCC[C@@H]3SC[C@@H]4NC(=O)N[C@@H]43)cc2Cl)cccc1-c1ccccc1 | 10.4% | 81.5% | –
O=C(O)CCCC[C@@H]1SC[C@@H]2NC(=O)N[C@@H]21 | – | – | Activity [19]: inactive; Activity [20]: inactive; inhibition [21]: inactive
Cc1c(COc2cc(OCc3cccc(C#N)c3)c(CNC(C)(C)C(=O)N3CCN(C(=O)CCCC[C@H]4SC[C@H]5NC(=O)N[C@H]54)CC3)cc2Cl)cccc1-c1ccc2c(c1)OCCO2 | 9.1% | 59.3% | –
Cc1c(COc2cc(OCc3cccc(C#N)c3)c(CN3CCCCC3C(=O)N3CCC(NC(=O)CCCC[C@@H]4SC[C@@H]5NC(=O)N[C@@H]54)CC3)cc2Cl)cccc1-c1ccccc1 (stereo partly specified) | 100% | 97.2% | pIC50 [18]: 8.40
Cc1c(COc2cc(OCc3cccc(C#N)c3)c(CN3CCCCC3C(=O)NCCNC(=O)CCCC[C@H]3SC[C@H]4NC(=O)N[C@H]43)cc2Cl)cccc1-c1ccc2c(c1)OCCO2 (stereo partly specified) | 26.8% | 88.5% | –
Cc1c(COc2cc(OCc3cccc(C#N)c3)c(CNC(C)(C)C(=O)NCCNC(=O)CCCC[C@@H]3SC[C@@H]4NC(=O)N[C@@H]43)cc2Cl)cccc1-c1ccccc1 | 21.3% | 79.2% | –
Cc1c(COc2cc(OCc3cccc(C#N)c3)c(CNC(C)(C)C(=O)NCCNC(=O)CCCC[C@H]3SC[C@H]4NC(=O)N[C@H]43)cc2Cl)cccc1-c1ccc2c(c1)OCCO2 | -4% | 66.9% | –
Cc1c(COc2cc(OCc3cccc(C#N)c3)c(CNC(C)(C)C(=O)N3CCC(NC(=O)CCCC[C@@H]4SC[C@@H]5NC(=O)N[C@@H]54)CC3)cc2Cl)cccc1-c1ccccc1 | 6.8% | 64.1% | –
Cc1c(COc2cc(OCc3cccc(C#N)c3)c(CN3CCCCC3C(=O)N(C)CCNC(=O)CCCC[C@@H]3SC[C@@H]4NC(=O)N[C@@H]43)cc2Cl)cccc1-c1ccc2c(c1)OCCO2 (stereo partly specified) | 20.1% | 82.6% | –
Cc1c(COc2cc(OCc3cccc(C#N)c3)c(CNC(C)(C)C(=O)NC3CCN(C(=O)CCCC[C@H]4SC[C@H]5NC(=O)N[C@H]54)CC3)cc2Cl)cccc1-c1ccc2c(c1)OCCO2 | 3.7% | 50.1% | –
Cc1c(COc2cc(OCc3cccc(C#N)c3)c(CN3CCCCC3C(=O)NC3CCN(C(=O)CCCC[C@H]4SC[C@H]5NC(=O)N[C@H]54)CC3)cc2Cl)cccc1-c1ccc2c(c1)OCCO2 (stereo partly specified) | 11.2% | 84.7% | –

Source: ChEMBL document CHEMBL5346977, “Discovery of Novel d-(+)-Biotin-Conjugated Resorcinol Dibenzyl Ether-Based PD-L1 Inhibitors for Targeted Cancer Immunotherapy” (J Med Chem, 2023)
